Assay results as given in PubChem BioAssay (NCI).
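Test compounds were applied to cells in 96-well plates for 48 hours at 5 doses. Abbreviation: GI50, concentration required for 50% inhibition of growth. TGI marks complete inhibition of growth.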

What was measured:
Assay in all cases: DTP human tumour cell line panel, 48 h
HCC-2998 colon = tested on: HCC-2998 colon
HCT-15 colon = tested on: HCT-15 colon
HL-60(TB) leukemia = tested on: HL-60(TB) leukemia
K-562 leukemia = tested on: K-562 leukemia
SK-MEL-28 melanoma = tested on: SK-MEL-28 melanoma
SK-MEL-5 melanoma = tested on: SK-MEL-5 melanoma
TK-10 renal = tested on: TK-10 renal
UO-31 renal = tested on: UO-31 renal
CCRF-CEM leukemia = tested on: CCRF-CEM leukemia
CAKI-1 renal = tested on: CAKI-1 renal

CCOC(=O)NC(=O)c1cn(CCN2CCN(C(=O)NCCCCCCNC(=O)N3CCN(CCn4cc(C(=O)NC(=O)OCC)c(=O)[nH]c4=O)CC3)CC2)c(=O)[nH]c1=O
TGI (HCC-2998 colon): > 100 µM
TGI (HCT-15 colon): > 100 µM
TGI (HL-60(TB) leukemia): > 100 µM
TGI (K-562 leukemia): > 100 µM
TGI (SK-MEL-28 melanoma): > 100 µM
TGI (SK-MEL-5 melanoma): > 100 µM
TGI (TK-10 renal): > 100 µM
TGI (UO-31 renal): > 100 µM

C[C@@H](NC(C#N)c1ccco1)c1ccccc1 (stereo not given in full)
TGI (CCRF-CEM leukemia): > 100 µM
TGI (HCC-2998 colon): > 100 µM
TGI (HCT-15 colon): > 100 µM
TGI (HL-60(TB) leukemia): > 100 µM
TGI (K-562 leukemia): > 100 µM
TGI (SK-MEL-28 melanoma): > 100 µM
TGI (SK-MEL-5 melanoma): > 100 µM
TGI (TK-10 renal): > 100 µM
TGI (UO-31 renal): > 100 µM

O=C1CC(CC(=O)C2CCCCC2=O)C(=O)N1 (stereo not given)
TGI (CAKI-1 renal): > 100 µM
TGI (CCRF-CEM leukemia): > 100 µM
TGI (HCC-2998 colon): > 100 µM
TGI (HL-60(TB) leukemia): > 100 µM
TGI (K-562 leukemia): > 100 µM
TGI (SK-MEL-28 melanoma): > 100 µM
TGI (TK-10 renal): > 100 µM
TGI (UO-31 renal): > 100 µM

CCSCCCSCCSCC
TGI (CCRF-CEM leukemia): > 100 µM
TGI (HCC-2998 colon): > 100 µM
TGI (HCT-15 colon): > 100 µM
TGI (HL-60(TB) leukemia): > 100 µM
TGI (K-562 leukemia): > 100 µM
TGI (SK-MEL-28 melanoma): > 100 µM
TGI (SK-MEL-5 melanoma): > 100 µM
TGI (TK-10 renal): > 100 µM
TGI (UO-31 renal): > 100 µM

O=C(N/N=C/c1ccccc1O)N/N=C/c1ccccc1O
TGI (CCRF-CEM leukemia): > 100 µM
TGI (HCC-2998 colon): > 100 µM
TGI (HCT-15 colon): > 100 µM
TGI (HL-60(TB) leukemia): > 100 µM
TGI (K-562 leukemia): > 100 µM
TGI (SK-MEL-28 melanoma): > 100 µM
TGI (TK-10 renal): > 100 µM
TGI (UO-31 renal): > 100 µM

C/C=C/C(C#N)O[Si](C)(C)C (stereo not given)
TGI (CAKI-1 renal): > 100 µM
TGI (HCC-2998 colon): > 100 µM
TGI (HCT-15 colon): > 100 µM
TGI (HL-60(TB) leukemia): > 100 µM
TGI (SK-MEL-28 melanoma): > 100 µM
TGI (SK-MEL-5 melanoma): > 100 µM
TGI (TK-10 renal): > 100 µM
TGI (UO-31 renal): > 100 µM

O=C(COc1ccccc1Cl)N1N=C(c2ccc(Cl)cc2)CC1(O)c1ccccc1 (stereo not given)
TGI (CAKI-1 renal): > 100 µM
TGI (HCC-2998 colon): > 100 µM
TGI (HCT-15 colon): > 100 µM
TGI (HL-60(TB) leukemia): > 100 µM
TGI (K-562 leukemia): > 100 µM
TGI (SK-MEL-28 melanoma): > 100 µM
TGI (TK-10 renal): > 100 µM
TGI (UO-31 renal): > 100 µM

IC[P+]1(c2ccccc2)CCCC1
TGI (CCRF-CEM leukemia): > 100 µM
TGI (HCC-2998 colon): > 100 µM
TGI (HCT-15 colon): > 100 µM
TGI (HL-60(TB) leukemia): > 100 µM
TGI (K-562 leukemia): > 100 µM
TGI (SK-MEL-28 melanoma): > 100 µM
TGI (SK-MEL-5 melanoma): 83.1 µM
TGI (TK-10 renal): > 100 µM
TGI (UO-31 renal): > 100 µM

O=S(=O)(/N=c1\scc(-c2ccccc2)n1-c1ccccc1)c1ccc(N2N=C3c4ccccc4CC3C2c2ccc(Cl)cc2)cc1 (stereo not given)
GI50 (CAKI-1 renal): 46.4 µM
TGI (CAKI-1 renal): > 100 µM
GI50 (CCRF-CEM leukemia): 18.6 µM
TGI (CCRF-CEM leukemia): 59.3 µM
GI50 (HCT-15 colon): 47.7 µM
TGI (HCT-15 colon): > 100 µM
GI50 (HL-60(TB) leukemia): 29.6 µM
TGI (HL-60(TB) leukemia): 69 µM
GI50 (K-562 leukemia): 20 µM
TGI (K-562 leukemia): 55.5 µM
GI50 (SK-MEL-28 melanoma): 67.7 µM
TGI (SK-MEL-28 melanoma): > 100 µM
GI50 (SK-MEL-5 melanoma): 25.2 µM
TGI (SK-MEL-5 melanoma): 75 µM
GI50 (TK-10 renal): 29.6 µM
TGI (TK-10 renal): > 100 µM
GI50 (UO-31 renal): 45.4 µM
TGI (UO-31 renal): > 100 µM

Oc1cccc(Nc2nc3ccccc3c3occc23)c1
GI50 (CAKI-1 renal): 2.04 µM
TGI (CAKI-1 renal): 6.65 µM
GI50 (HCC-2998 colon): 2.67 µM
TGI (HCC-2998 colon): 11.3 µM
GI50 (HCT-15 colon): 15 µM
TGI (HCT-15 colon): 33.8 µM
GI50 (HL-60(TB) leukemia): 5.22 µM
TGI (HL-60(TB) leukemia): 61.7 µM
GI50 (K-562 leukemia): 4.81 µM
TGI (K-562 leukemia): 55.8 µM
GI50 (SK-MEL-28 melanoma): 0.364 µM
TGI (SK-MEL-28 melanoma): 12.5 µM
GI50 (SK-MEL-5 melanoma): 14 µM
TGI (SK-MEL-5 melanoma): 27 µM
GI50 (TK-10 renal): 5.21 µM
TGI (TK-10 renal): 12.2 µM
GI50 (UO-31 renal): 10.5 µM
TGI (UO-31 renal): 22.2 µM

Cc1cc2c(C)nn(Cc3ccccc3)c2c(C(=O)O)c1C
TGI (CCRF-CEM leukemia): > 100 µM
TGI (HCC-2998 colon): > 100 µM
TGI (HCT-15 colon): > 100 µM
TGI (HL-60(TB) leukemia): > 100 µM
TGI (SK-MEL-28 melanoma): > 100 µM
TGI (TK-10 renal): > 100 µM
TGI (UO-31 renal): > 100 µM

COc1cc(Cl)cc(=O)c(O)c1OC
TGI (CCRF-CEM leukemia): > 100 µM
TGI (HCC-2998 colon): > 100 µM
TGI (HCT-15 colon): > 100 µM
TGI (HL-60(TB) leukemia): > 80.9 µM
TGI (K-562 leukemia): > 100 µM
TGI (SK-MEL-28 melanoma): > 100 µM
TGI (TK-10 renal): > 100 µM
TGI (UO-31 renal): > 100 µM

CO/N=C(\COc1ccc2c(c1)[nH]c1ccccc12)c1ccc(OC)cc1
GI50 (CCRF-CEM leukemia): > 100 µM
TGI (CCRF-CEM leukemia): > 100 µM
GI50 (HCC-2998 colon): > 100 µM
TGI (HCC-2998 colon): > 100 µM
GI50 (HCT-15 colon): > 100 µM
TGI (HCT-15 colon): > 100 µM
GI50 (HL-60(TB) leukemia): 62.2 µM
TGI (HL-60(TB) leukemia): > 100 µM
GI50 (K-562 leukemia): 31 µM
TGI (K-562 leukemia): > 100 µM
GI50 (SK-MEL-28 melanoma): 11.8 µM
TGI (SK-MEL-28 melanoma): 69.3 µM
GI50 (SK-MEL-5 melanoma): 15.7 µM
TGI (SK-MEL-5 melanoma): > 100 µM
GI50 (TK-10 renal): 13.6 µM
TGI (TK-10 renal): 66.7 µM
GI50 (UO-31 renal): > 100 µM
TGI (UO-31 renal): > 100 µM

O=c1cc(-c2cccs2)[nH]c2cc3c(cc12)OCO3
TGI (CCRF-CEM leukemia): > 100 µM
TGI (HCC-2998 colon): > 51.6 µM
TGI (HCT-15 colon): > 100 µM
TGI (HL-60(TB) leukemia): 40.1 µM
TGI (K-562 leukemia): > 100 µM
TGI (SK-MEL-28 melanoma): > 100 µM
TGI (SK-MEL-5 melanoma): > 31.9 µM
TGI (TK-10 renal): > 100 µM
TGI (UO-31 renal): > 100 µM

Cc1nc(C(N)=O)c(N)n1CCN1CCN(C(=O)CCCCCCCCCCNC2N=CNc3nc[nH]c32)CC1 (stereo not given)
TGI (CCRF-CEM leukemia): 81.9 µM
TGI (HCC-2998 colon): > 100 µM
TGI (HCT-15 colon): > 100 µM
TGI (HL-60(TB) leukemia): 60.8 µM
TGI (K-562 leukemia): > 100 µM
TGI (SK-MEL-28 melanoma): 79.1 µM
TGI (TK-10 renal): > 100 µM
TGI (UO-31 renal): > 100 µM

Cc1c(/C=N/NC(=O)c2ccccc2O)c(=O)n(-c2ccccc2)n1C
TGI (CCRF-CEM leukemia): > 100 µM
TGI (HCC-2998 colon): > 100 µM
TGI (HCT-15 colon): > 100 µM
TGI (HL-60(TB) leukemia): > 100 µM
TGI (K-562 leukemia): > 100 µM
TGI (SK-MEL-28 melanoma): > 100 µM
TGI (TK-10 renal): > 100 µM
TGI (UO-31 renal): > 100 µM

Nc1ncnc2c1ncn2C1OC(CSCC(F)(F)F)C(O)C1O (stereo not given)
TGI (CAKI-1 renal): > 100 µM
TGI (HCC-2998 colon): > 100 µM
TGI (HCT-15 colon): > 100 µM
TGI (HL-60(TB) leukemia): > 100 µM
TGI (K-562 leukemia): > 100 µM
TGI (SK-MEL-28 melanoma): > 100 µM
TGI (SK-MEL-5 melanoma): > 100 µM
TGI (TK-10 renal): > 100 µM
TGI (UO-31 renal): > 100 µM
